From the NIST ThermoML archive (doi:10.1016/j.jct.2013.11.022)
± gives the expanded uncertainty stated by the source.

Experiment: mn = molality of the nth substance listed, in mol/kg
Conditions: 101.33 kPa, Liquid; for viscosity: Capillary tube (Ostwald / Ubbelohde) method; for speed of sound: Sing-around technique in a fixed-path interferometer; for mass density: Vibrating tube method

NCC(=O)O [2-aminoacetic acid] + O
Conditions | mass density [kg/m3] | speed of sound [m/s] | viscosity [mPa·s]
293.15 K, m1 = 0.05 | 999.804 ± 0.11 | 1486.2 ± 1.2 | 1.013 ± 0.021
293.15 K, m1 = 0.0999 | 1001.4 ± 0.11 | 1488.6 ± 1.2 | 1.022 ± 0.021
293.15 K, m1 = 0.1499 | 1002.99 ± 0.11 | 1491.1 ± 1.2 | 1.029 ± 0.022
293.15 K, m1 = 0.2001 | 1004.57 ± 0.11 | 1493.6 ± 1.2 | 1.036 ± 0.022
293.15 K, m1 = 0.2504 | 1006.14 ± 0.11 | 1496 ± 1.2 | 1.039 ± 0.022
293.15 K, m1 = 0.2999 | 1007.67 ± 0.11 | 1498.4 ± 1.2 | 1.048 ± 0.022
293.15 K, m1 = 0.3501 | 1009.21 ± 0.11 | 1500.8 ± 1.2 | 1.056 ± 0.022
293.15 K, m1 = 0.3998 | 1010.72 ± 0.11 | 1503.2 ± 1.2 | 1.06 ± 0.022
298.15 K, m1 = 0.05 | – | 1500.3 ± 1.2 | 0.8991 ± 0.019
298.15 K, m1 = 0.0999 | 1000.21 ± 0.11 | 1502.7 ± 1.2 | 0.908 ± 0.019
298.15 K, m1 = 0.1499 | 1001.78 ± 0.11 | 1505.1 ± 1.2 | 0.9168 ± 0.019
298.15 K, m1 = 0.2001 | 1003.34 ± 0.11 | 1507.5 ± 1.2 | 0.9232 ± 0.019
298.15 K, m1 = 0.2504 | 1004.9 ± 0.11 | 1510 ± 1.2 | 0.9281 ± 0.019
298.15 K, m1 = 0.2999 | 1006.41 ± 0.11 | 1512.3 ± 1.2 | 0.933 ± 0.02
298.15 K, m1 = 0.3501 | 1007.93 ± 0.11 | 1514.7 ± 1.2 | 0.9379 ± 0.02
298.15 K, m1 = 0.3998 | 1009.43 ± 0.11 | 1517 ± 1.2 | 0.946 ± 0.02
303.15 K, m1 = 0.05 | – | 1512.6 ± 1.2 | 0.8077 ± 0.017
303.15 K, m1 = 0.0999 | 998.773 ± 0.11 | 1514.9 ± 1.2 | 0.8177 ± 0.017
303.15 K, m1 = 0.1499 | 1000.33 ± 0.11 | 1517.3 ± 1.2 | 0.8258 ± 0.017
303.15 K, m1 = 0.2001 | 1001.88 ± 0.11 | 1519.6 ± 1.2 | 0.8319 ± 0.017
303.15 K, m1 = 0.2504 | 1003.42 ± 0.11 | 1522 ± 1.2 | 0.8398 ± 0.018
303.15 K, m1 = 0.2999 | 1004.92 ± 0.11 | 1524.2 ± 1.2 | 0.8434 ± 0.018
303.15 K, m1 = 0.3501 | 1006.43 ± 0.11 | 1526.5 ± 1.2 | 0.8511 ± 0.018
303.15 K, m1 = 0.3998 | 1007.92 ± 0.11 | 1528.8 ± 1.2 | 0.8533 ± 0.018
308.15 K, m1 = 0.05 | 995.577 ± 0.11 | 1523.1 ± 1.2 | 0.7296 ± 0.015
308.15 K, m1 = 0.0999 | 997.132 ± 0.11 | 1525.4 ± 1.2 | 0.7366 ± 0.015
308.15 K, m1 = 0.1499 | 998.677 ± 0.11 | 1527.7 ± 1.2 | 0.7404 ± 0.016
308.15 K, m1 = 0.2001 | 1000.22 ± 0.11 | 1530 ± 1.2 | 0.7474 ± 0.016
308.15 K, m1 = 0.2504 | 1001.75 ± 0.11 | 1532.2 ± 1.2 | 0.7518 ± 0.016
308.15 K, m1 = 0.2999 | 1003.24 ± 0.11 | 1534.4 ± 1.2 | 0.7578 ± 0.016
308.15 K, m1 = 0.3501 | 1004.74 ± 0.11 | 1536.7 ± 1.2 | 0.7641 ± 0.016
308.15 K, m1 = 0.3998 | 1006.21 ± 0.11 | 1538.9 ± 1.2 | 0.7679 ± 0.016
313.15 K, m1 = 0.05 | – | 1532.1 ± 1.2 | 0.6609 ± 0.014
313.15 K, m1 = 0.0999 | – | 1534.3 ± 1.2 | 0.6662 ± 0.014
313.15 K, m1 = 0.1499 | – | 1536.5 ± 1.2 | 0.6686 ± 0.014
313.15 K, m1 = 0.2001 | – | 1538.7 ± 1.2 | 0.6721 ± 0.014
313.15 K, m1 = 0.2504 | 999.881 ± 0.11 | 1540.9 ± 1.2 | 0.6759 ± 0.014
313.15 K, m1 = 0.2999 | 1001.36 ± 0.11 | 1543.1 ± 1.2 | 0.6798 ± 0.014
313.15 K, m1 = 0.3501 | 1002.86 ± 0.11 | 1545.3 ± 1.2 | 0.6851 ± 0.014
313.15 K, m1 = 0.3998 | 1004.33 ± 0.11 | 1547.5 ± 1.2 | 0.6881 ± 0.014
